This note sets out measurements from PubChem BioAssay (NCI).

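Growth conditions: 96-well plates. Treatment: test compound, 48 hours, 5 concentrations. Analysis: linear interpolation between bracketing concentrations; unreached endpoints set to highest concentration. Here, GI50 denotes the concentration required for 50% inhibition of growth. The concentration for full growth arrest is given as TGI.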 Where a SMILES comes first, the peptide text is derived from it. The star is where a group is joined. Boc = CC(C)(C)OC(=O)* Bounds are passed on as bounds.

What all share (experiment): growth of human tumour cells (NCI), 48 h
In assay [1] the test system is HCT-116 colon.
Assay [2] relates to M19-MEL melanoma.
The subject of assay [3] is SNB-75 CNS.
Assay [4] relates to COLO 205 colon.
The test system of assay [5] is SNB-78 CNS.
Assay [6] concerns DMS 114 small cell lung.
The subject of assay [7] is DLD-1 colon.
The test system of assay [8] is DMS 273 small cell lung.
The test system of assay [9] is A498 renal.
Assay [10] deals with KM20L2 colon.
For assay [11], the system named is LXFL 529 NSCLC.
The subject of assay [12] is MDA-MB-231 breast.
The subject of assay [13] is BT-549 breast.
Assay [14] relates to MDA-N.

Turning to `Nc1ccc2ncc(Nc3ccc(F)cc3)nc2c1`, the TGI in assay [1], in [2], in [3], in assay [4], in assay [5] and in assay [6] was more than 100 µM throughout. Moreover, the TGI in assay [7] and in assay [8] was more than 100 µM throughout.
For `CC(OC1CC(=O)CC2C(=O)C=CC(=O)C12)c1ccccc1` (stereo unspecified), the TGI in [1] was 22.4 µM; in assay [9] it was 32 µM; in assay [2] it was 29.8 µM; in assay [3], more than 57.7 µM; in [4], 32 µM; in assay [5] it was 36.3 µM. Moreover, the TGI turned out to be 23 µM in assay [6]; 31 µM in assay [10]; 19.8 µM in assay [11]; 26.7 µM in assay [7]; 33.8 µM in assay [8].
As to `COc1ccc(OC)c(/C=C/C(=O)C(C)(C)C)c1`, the TGI in [1] worked out at 31.8 µM; in assay [9], 80 µM; in assay [2], 34.9 µM; in assay [3] it was 56.8 µM; in assay [4], 33.3 µM; in [6] it was 32.1 µM. For the same compound, the TGI amounted to 50.3 µM in assay [10], 36.4 µM in [11], 48.4 µM in [7] and 50.9 µM in assay [8].
Consider `CCCCCCCCCCCCC/C=C1\C[C@H](O)COC1=O`, for which the TGI in assay [1] was 31.2 µM; in assay [9] it was 33.7 µM; in assay [2], 33.6 µM; in assay [3], 30.7 µM; in assay [5], 33.9 µM; in assay [10] it was 31.7 µM. Further, the TGI is 29.8 µM in [11], 32 µM in assay [7] and 28 µM in assay [8].
`Fc1ccc2c(c1)SC1Oc3ccccc3-c3c1c-2nn3-c1ccccc1` (stereo unspecified): the TGI in assay [1], in assay [9], in [2], in [3], in assay [4] and in assay [5] was more than 100 µM in each case. The TGI in [6], in assay [10], in assay [11], in assay [7] and in assay [8] was more than 100 µM in each case.
Consider `CCOC(=O)C1(Br)C(c2ccccc2)NC(=O)N(C2OC(COC(=O)c3ccccc3)C(OC(=O)c3ccccc3)C2OC(=O)c2ccccc2)C1(C)Br` (stereo unspecified), for which the TGI in assay [1] is 52.2 µM; in [9], more than 100 µM; in assay [2], more than 100 µM; in assay [3], more than 90.7 µM; in assay [4], more than 65.7 µM; in assay [6], 49.6 µM. In addition, the TGI in assay [10] is more than 100 µM; in [11], more than 75.7 µM; in assay [7], more than 100 µM; in assay [8], more than 100 µM.
For the compound `Cc1ccc(C(=O)OC(C)C)cc1N=NN(C)C`, the TGI in assay [1], in assay [2], in assay [4], in assay [5], in assay [10] and in assay [12] was more than 100 µM in each case. Also, the TGI in [13], in [11], in assay [7], in [8] and in [14] was more than 100 µM each time.
For `CN/C=C(/c1ccc(OC)cc1)C(O)c1ccc(OC)c(OC)c1` (stereo unspecified), the TGI in assay [1], in assay [9], in [2], in assay [3], in assay [4] and in assay [6] was more than 100 µM in each case. The TGI in assay [10], in assay [7] and in assay [8] was more than 100 µM each time.
As for `COc1cc2c(cc1OC)C(=O)Cc1ccc3c(c1CNCC2)OCO3`, the TGI in [1], in assay [9], in assay [2], in assay [3], in assay [4] and in assay [5] was more than 100 µM throughout. The TGI in [6], in assay [10], in [11] and in assay [7] was more than 100 µM throughout.
With `O=S(=O)(O)c1cc(N=Nc2cc(S(=O)(=O)O)c3ccccc3c2O)ccc1/C=C/c1ccc(N=Nc2cc(S(=O)(=O)O)c3ccccc3c2O)cc1S(=O)(=O)O`, the TGI in assay [1] was more than 433 µM; in [2], more than 1000 µM; in assay [3], more than 736 µM; in assay [4] it was more than 380 µM; in assay [5] it was more than 1000 µM; in [6], more than 1000 µM. For the same compound, the TGI in assay [12] is 82.1 µM; in [13] it was 552 µM; in assay [11], more than 1000 µM; in assay [7], more than 1000 µM; in assay [8], more than 1000 µM; in assay [14], 359 µM. In addition, the GI50 in assay [2], in [5], in assay [6], in [7] and in [8] was more than 1000 µM throughout.
Consider `COc1ccc([C@@H]2CC(=O)NCCCNCCCCNCCCN2)cc1`, for which the TGI in assay [1], in assay [9], in assay [2], in assay [3], in assay [4] and in assay [5] was more than 100 µM each time. Moreover, the TGI in [6], in [10], in [11], in [7] and in assay [8] was more than 100 µM in each case.
Regarding `Nc1ccc(C(=O)NN2C(=O)C(Cl)C2c2cc(Br)cc(Br)c2O)cc1` (stereo unspecified), the TGI was more than 100 µM in [1]; 48.3 µM in assay [2]; more than 100 µM in assay [3]; more than 100 µM in [4]; more than 100 µM in assay [5]; 25.4 µM in [6]. Also, the TGI in [10], in assay [11], in [7] and in assay [8] was more than 100 µM throughout.
As for `FC(F)(F)c1ccc2c(c1)nc(Cc1ccc(Cl)c(Cl)c1)n2CC1CCCN2CCCCC12` (stereo unspecified), the TGI in assay [1] was 30.6 µM; in assay [9] it was 67.6 µM; in assay [3] it was more than 100 µM; in [4] it was 33.5 µM; in [12], 48.7 µM; in assay [13] it was 85.2 µM. In assay [14], this compound had a TGI of 38.8 µM.
`O=C1N[C@H]2C(=O)c3c(Cl)sc(Cl)c3[C@H]2O1`: the TGI in [1] was determined as 8.73 µM; in assay [9] it was 60.5 µM; in assay [3], 30.4 µM; in [4] it was 21.3 µM; in assay [12] it was 32 µM; in assay [13], 54.5 µM. In assay [14], this compound yielded a TGI of 14.7 µM.
For `N#Cc1nc(Sc2cnsn2)c(Sc2cnsn2)nc1C#N`, the TGI in [1] is 17.1 µM; in assay [9] it was 43.8 µM; in [3], 48.8 µM; in assay [4] it was 19 µM; in assay [12] it was 48.7 µM; in assay [13] it was 39.2 µM. This compound also came in with a TGI in [14] of 49.6 µM.
`c1cc2[nH]snc2c2cncc12`: the TGI in assay [1], in assay [9], in assay [3], in assay [4], in assay [12] and in assay [13] was more than 100 µM in each case. For the same compound, the TGI in assay [14] was more than 100 µM.
Regarding `O=C(CSc1nnc(Cc2ccccc2)o1)Nc1ccccc1Cl`, the TGI in assay [1], in assay [9], in [2], in assay [4], in assay [5] and in [6] was more than 100 µM each time. Also, the TGI in assay [10], in assay [11], in assay [7] and in [8] was more than 100 µM each time.
As for `COc1ccc(/C=N/NC(=O)c2ccccc2Nc2ccccc2C(=O)N/N=C/c2ccc(OC)cc2)cc1`, the TGI in assay [1], in [9], in assay [3], in assay [4], in assay [12] and in [13] was more than 100 µM throughout. This compound came in with a TGI in [14] of more than 100 µM.
On to `N#CC(c1ccccc1)N(CCc1ccccc1)C(=O)c1ccccc1` (stereo unspecified), for which the TGI was more than 100 µM in assay [1]; more than 100 µM in [9]; 57.2 µM in assay [3]; more than 100 µM in assay [4]; more than 100 µM in assay [12]; more than 100 µM in [13]. The same compound came in with a TGI in assay [14] of more than 100 µM.
`CC(=O)Nc1ccc(-c2nc3ccccc3s2)cc1Cl`: the TGI in [1], in assay [9], in [3], in assay [4], in [12] and in [13] was more than 100 µM in each case. Also, the TGI in assay [14] was more than 100 µM.
In the case of `Cc1nc2nn(Cc3ccccc3)cc2c(=O)o1`, the TGI in [1], in [9], in assay [2], in assay [3], in assay [4] and in assay [5] was more than 100 µM each time. In addition, the TGI in assay [6], in assay [10], in assay [11], in [7] and in assay [8] was more than 100 µM in each case.
On to `COC(=O)C(Cc1c[nH]c2ccccc12)NC(=O)C(Cc1c[nH]c2ccccc12)NC(=O)C(Cc1c[nH]c2ccccc12)NC(=O)OC(C)(C)C` (stereo not drawn) (Boc-Trp-Trp-Trp-OMe; configuration not given here), for which the TGI in [1] was 29.8 µM; in assay [9], more than 100 µM; in assay [3], 42 µM; in assay [4], 42.7 µM; in [12] it was 93.1 µM; in assay [13], 33.8 µM. The compound also displayed a TGI in assay [14] of 40.3 µM.
`CC(O)CCNC(=O)Nc1c(C(F)(F)F)cc(-c2ccccc2)[nH]c1=O` (stereo unspecified): the TGI in assay [1], in [9], in assay [3], in assay [4], in assay [12] and in [13] was more than 100 µM in each case. The TGI in assay [14] is more than 100 µM.
Regarding `C/C(=N/NC(=S)N(C)CCc1ccccn1)c1cnccn1`, the TGI was 18 µM in assay [1]; more than 100 µM in assay [9]; 18.4 µM in assay [3]; 21.8 µM in [4]; 21.2 µM in [12]; 10.2 µM in assay [13]. This compound yielded a TGI in [14] of 20.9 µM.
Consider `O=[N+]([O-])c1cc2c(cc1O)[nH]c1cccc([N+](=O)[O-])c12`, for which the TGI in [1], in assay [2], in assay [3], in assay [4], in assay [5] and in assay [6] was more than 100 µM each time. The TGI in [7] and in assay [8] was more than 100 µM each time.
